# Measured values published in ChEMBL document CHEMBL3612061, “Imidazopyridines as a source of biological activity and their pharmacological potentials-Infrared and Raman spectroscopic evidence of their content in pharmaceuticals and plant materials” (Bioorg Med Chem, 2015).
# Tested on: Vaccinia virus
# Assay: Antiviral activity against Vaccinia virus assessed as protection against virus-induced cytopathogenic effect by cell based assay
# Format: functional
# Settings: Orthopoxvirus vaccinia; read-out: ID50 (the source's name)
compound,measurement,value
Nc1nccc2c1ncn2C1C=C(CO)C(O)C1O (stereo unspecified) [3-DEAZANEPLANOCIN A],IC50,0.02 µg/mL
